Data reported in paper PMC7340268, “Structural definition of polyspecific compensatory ligand recognition by P-glycoprotein” (IUCrJ, 2020).
“Also recorded” adds a separate entry of the source. Marks after values point to notes of the source that are not given here.

Legend:
[1] = biological target: T1, Pgp C952A/Y303A (Mus musculus, UniProt P21447, C952A/Y303A); experiment: Co-crystal structure, occupancy refinement of BDE-100; type: binding
T1 construct: 6xHis (C); made in house; host or cells: Pichia pastoris
Description: (§1) To reproduce the binding of BDE-100 to Pgp and maintain crystal isomorphism, we utilized the reductive-methylation protocol of Ward et al. (2013[▸]) with some modifications. Fresh dimethylamine–borane (20 mM; Sigma–Aldrich) and 16% formaldehyde (40 mM; Thermo Scientific) were added to 1–3 mg mouse Pgp. The mixture was incubated for 2 h at 4°C and further dimethylamine–borane and formaldehyde were added after 2 h. After incubation for 16 h at 4°C, the reaction was quenched with cold glycine on ice for 2 h and flushed with SEC buffer (10 mM Tris–HCl pH 7.5, 75 mM NaCl, 0.0375% DDM, 0.04% sodium cholate, 0.1 mM TCEP). The eluted protein was concentrated to 2–3 mg ml^−1 and incubated with 0.5 mM BDE-100 (AccuStandard) dissolved in DMSO in the dark for 16 h at 4°C. The precipitate was centrifuged and the extracted sample was […] 1:10 in SEC buffer to give a final concentration of 10–13 mg ml^−1. Crystallization was set up using 3 µl sitting drops in 24-well Cryschem plates (Hampton Research) with a 1:1 ratio of protein solution and reservoir solution [0.1 M HEPES, 50 mM lithium sulfate, 10 mM EDTA, 26–28.5%(w/v) polyethylene glycol (PEG) 600 pH 7.9–8.4]. Crystals could be visualized after ∼3 days at 4°C and reached full size in ∼4 weeks.
(§2) X-ray diffraction data were collected at 100 K on beamline 23-ID-D at the Advanced Photon Source (APS). MAD scans were obtained from Pgp–BDE-100 co-crystals near the Br K edge to optimize for the strongest anomalous signal at the beginning of each data-collection session and whenever data were collected from a new mutant. The data were processed, integrated and scaled with HKL-2000 (Otwinowski & Minor, 1997[▸]). The Pgp structures were solved by molecular replacement using the previously solved BDE-100 complex structure (PDB entry 4xwk; Nicklisch et al., 2016[▸]) without the BDE-100 (Table 1 ▸) using an initial rigid-body refinement of the two pseudosymmetric halves of the protein. Subsequent rounds included the full molecule with chains linked including ligands. Phenix.elbow was used to produce ligand description dictionaries (Adams et al., 2010[▸]) and the placement of BDE-100 was verified by anomalous scattering of the Br atoms and OMIT density (see Fig. 1 ▸ for top views, Supplementary Fig. S1 for side views and Supplementary Fig. S2 for ligand F o − F c OMIT maps) calculated via CNS (Brünger et al., 1998[▸]). The structures agreed with the previously solved structure as our control mutant (C952A) contained BDE-100 in the same position based on experimental data. All models were subjected to rigid-body, xyz, group B-factor and individual B-factor refinement using phenix.refine (Afonine et al., 2010[▸]) and the model geometry was monitored using MolProbity (Chen et al., 2010[▸]) in the absence of the ligand. The BDE-100 atoms were then modeled and the structures were subjected to the same refinement steps including occupancy refinement using an occupancy of 0.5 as the starting point. […] We conclude there is a sufficient data-to-parameter ratio to refine both B factors and occupancy for the BDE-100 ligand in PDB entry 4xwk as well as in all of our structures. Our own refinement of PDB entry 4xwk yielded a ligand occupancy of 0.66 and our control mutant C952A agreed very well, with a refined occupancy of 0.67 (for a full list, see Table 2 ▸). The refined occupancy values for ligands also agreed very well with the intensities of their respective anomalous difference Fourier electron densities. Data statistics and parameters supporting the quality of the structures are presented in Table 1 ▸ and Supplementary Table S1. Figures were prepared and r.m.s.d.s were calculated in PyMOL (version 1.8; Schrödinger). […]

[2] = biological target: T2, Pgp C952A/F724A (Mus musculus, UniProt P21447, C952A/F724A); experiment: as above; type: binding
T2 construct: 6xHis (C); made in house; host or cells: Pichia pastoris
Description: as §1, §2

[3] = biological target: T3, Pgp C952A/F979A (Mus musculus, UniProt P21447, C952A/F979A); experiment: as above; type: binding
T3 construct: 6xHis (C); made in house; host or cells: Pichia pastoris
Description: as §1, §2

[4] = biological target: T4, Pgp C952A/F728A (Mus musculus, UniProt P21447, C952A/F728A); experiment: as above; type: binding
T4 construct: 6xHis (C); made in house; host or cells: Pichia pastoris
Description: as §1, §2

[5] = biological target: T5, Pgp C952A (Mus musculus, UniProt P21447, C952A); experiment: as above; type: binding
T5 construct: 6xHis (C); made in house; host or cells: Pichia pastoris
Description: as §1, §2

[6] = biological target: T6, Pgp C952A/Y306A (Mus musculus, UniProt P21447, C952A/Y306A); experiment: as above; type: binding
T6 construct: 6xHis (C); made in house; host or cells: Pichia pastoris
Description: as §1, §2

[7] = biological target: Pgp (PDB entry 4xwk) (Mus musculus, UniProt P21447); experiment: Authors' own occupancy refinement of the published Pgp-BDE-100 structure; type: binding; conditions: own refinement using the deposited structure factors
Excerpt: X-ray diffraction data were collected at 100 K on beamline 23-ID-D at the Advanced Photon Source (APS). MAD scans were obtained from Pgp–BDE-100 co-crystals near the Br K edge to optimize for the strongest anomalous signal at the beginning of each data-collection session and whenever data were collected from a new mutant. The data were processed, integrated and scaled with HKL-2000 (Otwinowski & Minor, 1997[▸]). The Pgp structures were solved by molecular replacement using the previously solved BDE-100 complex structure (PDB entry 4xwk; Nicklisch et al., 2016[▸]) without the BDE-100 (Table 1 ▸) using an initial rigid-body refinement of the two pseudosymmetric halves of the protein. […] Phenix.elbow was used to produce ligand description dictionaries (Adams et al., 2010[▸]) and the placement of BDE-100 was verified by anomalous scattering of the Br atoms and OMIT density (see Fig. 1 ▸ for top views, Supplementary Fig. S1 for side views and Supplementary Fig. S2 for ligand F o − F c OMIT maps) calculated via CNS (Brünger et al., 1998[▸]). […] All models were subjected to rigid-body, xyz, group B-factor and individual B-factor refinement using phenix.refine (Afonine et al., 2010[▸]) and the model geometry was monitored using MolProbity (Chen et al., 2010[▸]) in the absence of the ligand. […] Figures were prepared and r.m.s.d.s were calculated in PyMOL (version 1.8; Schrödinger). […]

[8] = tested on: wild-type Pgp; parameters: method as in Nicklisch et al., 2016; conditions: ref Nicklisch et al., 2016, cited from earlier work
[9] = tested on: Pgp C952A control and the five aromatic replacement mutants (Y303A, Y306A, F724A, F728A, F979A); experiment: Effect of BDE-100 on basal and verapamil-stimulated ATPase activity; type: biochemical, mouse; conditions: BDE-100 at 50, 75 and 100 µM
Description: Figure 3 The effect of BDE-100 on the verapamil-stimulated ATPase activity of the six Pgp mutations. […]. The level of BDE-100 inhibition of the verapamil-stimulated ATPase EC50 for each mutant is also shown. P values were determined from a two-tailed unequal variance test: ****, p ≤ 0.0001; ***, p ≤0.0001–0.001; *, p ≤0.05–0.01. […]
(Figure 4) were chosen to yield a more finely sampled dose response for this figure. BDE-100 alone had little effect on Pgp ATPase activity. Inhibitory effects of BDE-100 at 50 µM, 75 µM and 100 µM on the Verapamil-EC50 specific to each mutant were determined. All measurements were determined with seven independent measurements (n=7).
(1 picture or pasted object on this page, not shown here)

T4 sequence (P21447 whole entry F728A/C952A): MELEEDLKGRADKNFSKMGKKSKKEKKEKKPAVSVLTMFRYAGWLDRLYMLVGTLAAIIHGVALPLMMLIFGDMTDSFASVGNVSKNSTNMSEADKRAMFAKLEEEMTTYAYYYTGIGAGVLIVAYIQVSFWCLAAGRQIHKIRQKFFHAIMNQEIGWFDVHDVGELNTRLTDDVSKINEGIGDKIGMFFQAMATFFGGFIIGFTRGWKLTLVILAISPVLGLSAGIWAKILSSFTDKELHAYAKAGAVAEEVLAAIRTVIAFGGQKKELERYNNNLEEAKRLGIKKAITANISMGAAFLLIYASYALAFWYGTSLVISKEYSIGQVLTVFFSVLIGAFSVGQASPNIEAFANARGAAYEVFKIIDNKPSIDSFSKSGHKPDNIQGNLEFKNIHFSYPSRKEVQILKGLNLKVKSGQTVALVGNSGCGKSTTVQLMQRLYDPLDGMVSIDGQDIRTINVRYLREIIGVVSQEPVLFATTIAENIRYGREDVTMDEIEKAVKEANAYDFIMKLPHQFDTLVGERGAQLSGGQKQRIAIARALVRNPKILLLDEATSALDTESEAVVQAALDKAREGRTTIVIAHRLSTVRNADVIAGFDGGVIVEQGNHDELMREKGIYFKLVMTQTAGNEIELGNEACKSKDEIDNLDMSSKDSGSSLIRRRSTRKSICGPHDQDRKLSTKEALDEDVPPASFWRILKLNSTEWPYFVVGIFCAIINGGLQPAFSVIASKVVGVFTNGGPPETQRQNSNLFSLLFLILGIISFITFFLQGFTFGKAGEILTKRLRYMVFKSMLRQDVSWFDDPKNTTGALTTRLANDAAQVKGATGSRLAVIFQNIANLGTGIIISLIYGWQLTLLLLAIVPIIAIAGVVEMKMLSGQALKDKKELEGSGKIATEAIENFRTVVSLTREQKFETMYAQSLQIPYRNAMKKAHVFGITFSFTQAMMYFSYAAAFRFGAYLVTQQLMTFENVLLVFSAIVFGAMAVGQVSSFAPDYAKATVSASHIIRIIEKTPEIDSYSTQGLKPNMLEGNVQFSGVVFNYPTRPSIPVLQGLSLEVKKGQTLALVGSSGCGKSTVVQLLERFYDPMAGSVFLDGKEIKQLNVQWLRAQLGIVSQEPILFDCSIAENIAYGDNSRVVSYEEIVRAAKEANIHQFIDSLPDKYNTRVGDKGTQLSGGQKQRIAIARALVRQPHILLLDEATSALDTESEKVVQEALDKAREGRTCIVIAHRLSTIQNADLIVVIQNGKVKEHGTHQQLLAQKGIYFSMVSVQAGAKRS
T1 sequence (P21447 whole entry Y303A/C952A): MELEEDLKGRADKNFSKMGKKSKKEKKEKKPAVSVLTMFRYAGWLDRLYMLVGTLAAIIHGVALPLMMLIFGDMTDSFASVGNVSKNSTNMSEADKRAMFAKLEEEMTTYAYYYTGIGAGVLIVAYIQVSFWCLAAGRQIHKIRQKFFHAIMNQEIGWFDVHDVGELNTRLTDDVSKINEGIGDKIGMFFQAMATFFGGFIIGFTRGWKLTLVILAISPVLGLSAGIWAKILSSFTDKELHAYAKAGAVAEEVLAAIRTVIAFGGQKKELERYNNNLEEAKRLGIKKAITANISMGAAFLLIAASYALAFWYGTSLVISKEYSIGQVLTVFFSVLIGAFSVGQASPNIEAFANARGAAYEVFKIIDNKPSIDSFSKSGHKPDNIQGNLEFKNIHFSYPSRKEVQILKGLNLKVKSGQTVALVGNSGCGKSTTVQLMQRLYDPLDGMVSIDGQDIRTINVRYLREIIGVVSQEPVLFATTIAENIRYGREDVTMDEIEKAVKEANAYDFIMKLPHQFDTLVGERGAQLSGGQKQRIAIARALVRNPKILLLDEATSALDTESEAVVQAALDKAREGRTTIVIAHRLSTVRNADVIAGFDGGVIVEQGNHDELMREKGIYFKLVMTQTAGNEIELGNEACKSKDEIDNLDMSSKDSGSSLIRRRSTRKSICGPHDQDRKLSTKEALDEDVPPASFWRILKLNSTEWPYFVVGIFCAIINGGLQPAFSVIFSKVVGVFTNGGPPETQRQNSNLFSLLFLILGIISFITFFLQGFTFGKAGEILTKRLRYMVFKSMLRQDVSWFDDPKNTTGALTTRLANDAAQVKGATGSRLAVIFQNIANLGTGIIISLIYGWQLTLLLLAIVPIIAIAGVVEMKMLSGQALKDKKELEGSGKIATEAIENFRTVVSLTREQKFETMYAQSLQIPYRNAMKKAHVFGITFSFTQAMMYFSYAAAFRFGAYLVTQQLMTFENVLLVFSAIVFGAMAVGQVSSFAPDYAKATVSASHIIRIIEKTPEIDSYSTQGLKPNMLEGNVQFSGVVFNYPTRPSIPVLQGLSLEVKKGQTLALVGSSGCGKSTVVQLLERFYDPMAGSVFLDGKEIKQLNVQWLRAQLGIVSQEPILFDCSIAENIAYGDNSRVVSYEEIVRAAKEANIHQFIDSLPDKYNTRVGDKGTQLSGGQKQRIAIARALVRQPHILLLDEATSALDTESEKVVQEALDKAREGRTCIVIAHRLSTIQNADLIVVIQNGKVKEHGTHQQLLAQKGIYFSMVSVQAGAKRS
Sequence of Pgp (PDB entry 4xwk) (P21447 whole entry): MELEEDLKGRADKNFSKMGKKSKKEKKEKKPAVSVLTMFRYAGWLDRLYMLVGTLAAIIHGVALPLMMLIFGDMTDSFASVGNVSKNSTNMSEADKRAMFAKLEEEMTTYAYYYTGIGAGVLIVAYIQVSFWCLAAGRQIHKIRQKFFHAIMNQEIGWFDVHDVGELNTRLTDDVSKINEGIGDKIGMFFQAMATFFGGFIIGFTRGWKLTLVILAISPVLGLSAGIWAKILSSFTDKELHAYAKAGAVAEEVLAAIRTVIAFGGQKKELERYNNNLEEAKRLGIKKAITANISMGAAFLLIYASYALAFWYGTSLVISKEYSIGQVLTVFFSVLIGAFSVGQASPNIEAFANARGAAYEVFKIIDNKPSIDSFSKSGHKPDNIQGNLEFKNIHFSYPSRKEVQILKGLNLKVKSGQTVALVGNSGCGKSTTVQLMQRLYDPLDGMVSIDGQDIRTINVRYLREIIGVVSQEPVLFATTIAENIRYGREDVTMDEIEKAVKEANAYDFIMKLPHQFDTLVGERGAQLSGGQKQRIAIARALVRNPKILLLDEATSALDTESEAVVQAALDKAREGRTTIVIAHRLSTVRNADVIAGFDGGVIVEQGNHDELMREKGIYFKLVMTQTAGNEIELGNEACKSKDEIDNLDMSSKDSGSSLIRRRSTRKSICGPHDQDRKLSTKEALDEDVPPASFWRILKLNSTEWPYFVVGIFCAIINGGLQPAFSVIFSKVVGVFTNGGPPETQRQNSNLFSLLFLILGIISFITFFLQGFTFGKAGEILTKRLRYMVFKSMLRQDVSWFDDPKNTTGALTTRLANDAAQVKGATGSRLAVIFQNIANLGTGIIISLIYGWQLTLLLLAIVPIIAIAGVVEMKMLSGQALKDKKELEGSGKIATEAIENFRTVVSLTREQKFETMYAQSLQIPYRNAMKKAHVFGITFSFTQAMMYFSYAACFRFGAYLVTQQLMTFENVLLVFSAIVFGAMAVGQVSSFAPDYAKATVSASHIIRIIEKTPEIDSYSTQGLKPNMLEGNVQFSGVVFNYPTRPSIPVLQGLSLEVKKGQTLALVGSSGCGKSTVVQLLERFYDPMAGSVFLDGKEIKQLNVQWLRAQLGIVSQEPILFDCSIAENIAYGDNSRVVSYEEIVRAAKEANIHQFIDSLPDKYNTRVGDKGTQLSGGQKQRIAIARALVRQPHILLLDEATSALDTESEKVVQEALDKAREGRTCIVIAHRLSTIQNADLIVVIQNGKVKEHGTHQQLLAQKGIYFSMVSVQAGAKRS
T5 sequence (P21447 whole entry C952A): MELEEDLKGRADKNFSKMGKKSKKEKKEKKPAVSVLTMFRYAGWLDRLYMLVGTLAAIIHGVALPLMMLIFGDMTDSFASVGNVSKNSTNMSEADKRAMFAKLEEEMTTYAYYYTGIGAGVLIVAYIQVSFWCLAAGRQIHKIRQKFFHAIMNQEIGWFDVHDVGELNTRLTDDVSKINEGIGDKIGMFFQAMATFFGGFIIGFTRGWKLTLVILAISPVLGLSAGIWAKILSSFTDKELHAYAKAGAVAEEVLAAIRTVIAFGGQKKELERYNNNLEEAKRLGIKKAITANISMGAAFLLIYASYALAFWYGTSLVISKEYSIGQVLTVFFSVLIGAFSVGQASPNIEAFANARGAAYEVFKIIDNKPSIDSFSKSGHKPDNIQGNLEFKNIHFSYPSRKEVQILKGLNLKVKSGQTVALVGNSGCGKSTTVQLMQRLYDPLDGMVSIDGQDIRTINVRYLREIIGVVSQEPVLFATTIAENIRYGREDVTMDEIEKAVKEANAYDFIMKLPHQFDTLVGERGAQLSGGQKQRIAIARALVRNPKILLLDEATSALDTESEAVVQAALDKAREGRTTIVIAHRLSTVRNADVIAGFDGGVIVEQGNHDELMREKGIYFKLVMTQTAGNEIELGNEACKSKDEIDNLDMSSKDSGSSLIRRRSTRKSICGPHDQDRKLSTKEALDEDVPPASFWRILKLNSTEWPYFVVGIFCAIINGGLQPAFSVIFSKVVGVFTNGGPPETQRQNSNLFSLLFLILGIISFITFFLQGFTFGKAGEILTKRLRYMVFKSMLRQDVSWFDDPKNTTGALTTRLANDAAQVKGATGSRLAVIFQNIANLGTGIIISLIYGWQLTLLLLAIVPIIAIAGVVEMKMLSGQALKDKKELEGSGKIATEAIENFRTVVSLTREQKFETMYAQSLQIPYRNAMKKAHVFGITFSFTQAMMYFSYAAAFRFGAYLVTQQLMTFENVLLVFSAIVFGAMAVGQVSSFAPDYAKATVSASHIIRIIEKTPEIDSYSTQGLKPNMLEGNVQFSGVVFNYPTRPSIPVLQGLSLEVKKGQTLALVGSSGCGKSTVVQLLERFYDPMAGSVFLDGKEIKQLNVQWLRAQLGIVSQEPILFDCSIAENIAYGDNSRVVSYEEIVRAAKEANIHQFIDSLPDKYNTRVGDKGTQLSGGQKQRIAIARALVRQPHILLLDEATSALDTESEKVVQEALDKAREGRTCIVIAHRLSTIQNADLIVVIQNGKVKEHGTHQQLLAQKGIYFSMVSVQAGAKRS

Compound: Brc1ccc(Oc2c(Br)cc(Br)cc2Br)c(Br)c1 [BDE-100]
- Occupancy of BDE-100, site 1 [1]: 64%
- Occupancy of BDE-100, site 2 [1]: 56%
- Occupancy of BDE-100, site 3 [2]: 35%
- Occupancy of BDE-100, site 1 [3]: 65%
- Occupancy of BDE-100, site 1 (designated site 1A) [4]: 53 ^† %
- Occupancy of BDE-100, site 2 [4]: 48%
- Occupancy of BDE-100, site 1 ([5]; C952A): 67%
- Refined ligand occupancy, site 1 ([5]; C952A control, as fraction): 0.67
- Occupancy of BDE-100, site 1 [6]: 68%
- Occupancy of BDE-100, site 2 [6]: 49%
- Occupancy of BDE-100, site 1 [7]: 66%
- Refined ligand occupancy, site 1 ([7]; as fraction): 0.66
- Inhibition of verapamil-stimulated ATPase activity [8]: potent inhibitor
- Effect of BDE-100 alone on basal ATPase activity ([8]; wild-type Pgp): did not increase the basal ATPase activity
- Effect of BDE-100 alone on basal ATPase activity ([9]; absence of verapamil, C952A control and five mutants): did not increase the basal ATPase activity; also recorded: little effect
- Effect of BDE-100 on verapamil-stimulated ATPase activity ([9]; at the verapamil EC50 determined for each mutant): inhibited; also recorded: significant inhibitory effect
